US20090082304A1, “Methods of Treating Hematological Malignancies with Nucleoside Analog Drugs” (NORTHWESTERN UNIVERSITY, priority 2004, published 2009)

Legend:
[1] = test system: ERK1/2; assay: Immunoblot of phospho-ERK1/2 in MM.1 S cells; format: cell-based; settings: data not shown; for phospho-ERK1/2: dextrose-free media, ATP depletion, 90 minutes; for phosphorylation of ERK1/2: 4 hours
Method: (§1) 5×10^6 were cells treated with 10 μM 8-NH2-Ado for the indicated times and harvested. Cell pellets were washed with cold phosphate-buffered saline (PBS; 8.1 g NaCl, 1.14 g Na2HPO4, 0.22 g KCl, and 0.25 g/L KH2PO4) and incubated with lysis buffer (50 mM HEPES, 150 mM NaCl, 1.5 mM MgCl2, 1 mM EDTA pH 8.0, 100 mM NaFI, 10 mM Na Pyrophosphate, 500 μM PMSF, 0.5% Triton X-100, 10% glycerol) at 4° C. for one hour. Lysates were centrifuged at 4° C. for 1 minute at 9000×g, and the supernatants were collected and stored at −20° C. Protein concentration was determined by Bio-Rad protein assay (BioRad Laboratories, Hercules, Calif.). Protein, at a concentration of 30 μg, was mixed with sample buffer (125 mM Tris, pH 6.8, 4% SDS, 20% glycerol, 100 mM Dithiothreitol (DTT), and 0.05% bromophenol blue), and fractionated on a pre-cast 8-16% Tris-Glycine gel (Invitrogen/Novex, Carlsbad, Calif.). Proteins were then transferred to a Polyvinylidene Fluoride (PVDF) membrane (Immobilon-P, Millipore, Bedford, Mass.): Following protein transfer, membranes were blocked with 5% non-fat milk in PBS-T (PBS with 0.1% Tween), incubated with the primary antibody overnight at 4° C. and subsequently with horseradish peroxidase linked secondary antibody (Amersham, Arlington Heights, Ill.). Blots were developed using ECL Plus Chemiluminescent Western Blotting Detection reagent (Amersham, Arlington Heights, Ill.) and the signal was visualized with X-ray film (Hyperfilm, Amersham, Arlington Heights, Ill.). For reprobing purposes, blots were stripped using Restore Western Blot Stripping Buffer from Pierce Biotechnology (Rockford, Ill.). Phospho-MKK3/6 (Ser189/207), phospho-p38 (Thr180/Tyr182), phospho-ATF-2 (Thr69/71), phospho-c-Raf (Ser259), phospho-MEK1/2 (Ser217/221), total MEK1/2, phospho-ERK1/2 (Thr202/Tyr204), total ERK1/2, phospho-p90RSK (Ser380), total RSK, phospho-PDK1 (Ser241), total PDKI, phospho-PTEN (Ser380), total PTEN, phospho-Akt (Ser473), total Akt, phospho-GSK-3β (Ser9), total GSK-3β, phospho-FKHRLI (Thr32)/-FKHR (Thr24), phospho-FKHR (Ser256) primary antibodies were obtained from Cell Signaling Technology (Beverly, Mass.). Total MKK3, total MKK6, total p38, total ATF-2, total c-Raf, total FKHR, total FKHRLI, phospho-JNK and total JNK were purchased from Santa Cruz Biotechnology (Santa Cruz, Calif.). Caspase 3, caspase 9, and PARP antibodies were obtained from Pharmingen (San Diego, Calif.) and anti-MKP1 from Upstate (Lake Placid, N.Y.). Anti-caspase 8 mouse serum was a generous gift of Dr. Marcus Peter (University of Chicago).
(§2) MM.1 S cells were exposed to 10 μM 8-NH2-Ado for 0, 0.5, 1, 2, 4 and 6 hours, after which cells were lysed as previously (Example 2). 30 μg of protein was separated by gel electrophoresis, transferred to PVDF membrane, and probed with phosphorylation-specific antibodies to MKK3/6, p38 MAPK, ATF-2, MEK1/2, ERK1/2, p90RSK, JNK1, PDK1, Akt, FKHRL1 and GSK-3β.
(§3) MM. I S cells were treated with 10 μM 8-chloro-adenosine for 0, 0.5, 1, 2, 4 or 6 hours or 10 μM of cytarabine, fludarabine, gemcitabine or 8-amino-adenosine for 4 hours. Cells were lysed as previously described and 30 μg of protein was separated by gel electrophoresis, transferred to PVDF membrane, and probed with phospho-p38 MAPK (Thr180/Tyr182) antibody.
(§4) MM.1 S cells were grown in dextrose-free media and treated with 2 μM Antimycin A, 5 mM 2-DOG, and varying concentrations of dextrose for 90 minutes. Cellular ATP levels were determined using triplicate samples in a luciferase based assay and are expressed here as a percentage of untreated control.

[2] = test system: Akt kinase; assay: Immunoblot of phospho-Akt in MM.1 S cells; format: cell-based; settings: data not shown; for phospho-Akt: dextrose-free media, ATP depletion, 90 minutes; for phosphorylation of Akt: 4 hours
Method: as §1, §2, §3, §4

[3] = test system: MM cells; settings: cited from earlier work
[4] = test system: p38 MAPK; assay: Immunoblot of phospho-p38 MAPK in MM.1 S cells; format: cell-based
Method: as §1
as §2, with “GSK-3β. […] FIGS. 1A, 1B, 1C and 1D provide the results of the blots.” for “GSK-3β.”
as §3
In a parallel approach to test the involvement of cellular phosphatases, we treated MM.1 S cells with varying concentrations of the phosphatase inhibitor okadaic acid in combination with 8-NH2-Ado for 4 hours to assess whether the serine/threonine phosphatases PP2A and PPI are involved.

[5] = test system: MM cells; settings: MM cells, previously shown; cited from earlier work

For O=CC[C@@H](O)[C@H](O)[C@H](O)CO [2-DOG, 2-deoxy-D-glucose], the phospho-ERK1/2 [1] was “did not reveal a decrease in phosphorylation” and the phospho-Akt [2] was “did not reveal a decrease in phosphorylation”.

For Nc1ncnc2c1nc(Cl)n2[C@@H]1O[C@H](CO)[C@@H](O)[C@H]1O [8-chloro-adenosine], the “phosphorylation status of ERK1/2” value ([1]; 10 μM, time course 0-6 hours) is listed as “does not reveal any effect”, the apoptosis [3] is listed as “induces apoptosis” and the “phosphorylation status of p38” value ([4]; 10 μM, time course 0-6 hours) is listed as “does not reveal any effect”. For the same compound, the “phosphorylation status of Akt kinase” value ([2]; 10 μM, time course 0-6 hours) was “does not reveal any effect”.

In the case of Nc1nc(F)nc2c1ncn2[C@@H]1O[C@H](CO)[C@@H](O)[C@@H]1O [Fludarabine], the cytotoxicity [5] is listed as “cytotoxic”.

For Nc1ccn([C@@H]2O[C@H](CO)[C@@H](O)[C@@H]2O)c(=O)n1 [cytarabine], the “phosphorylation of ERK1/2” value ([1]; 10 μM) is listed as “do not cause a decrease”, the cytotoxicity [5] is listed as “cytotoxic” and the “phosphorylation of p38” value ([4]; 10 μM, 4 hours) is listed as “do not cause a decrease”. For the same compound, the “phosphorylation of Akt” value ([2]; 10 μM) was “do not cause a decrease”.

For Nc1ccn([C@@H]2O[C@H](CO)[C@@H](O)C2(F)F)c(=O)n1 [gemcitabine], the “phosphorylation of ERK1/2” value ([1]; 10 μM) is given as “do not cause a decrease”, the cytotoxicity [5] is given as “cytotoxic” and the “phosphorylation of p38” value ([4]; 10 μM, 4 hours) is given as “do not cause a decrease”. The “phosphorylation of Akt” value ([2]; 10 μM) was “do not cause a decrease”.

In the case of C=C1[C@@H](O)[C@@H]2O[C@]3(CC[C@H](/C=C/[C@@H](C)[C@@H]4CC(C)=C[C@@]5(O[C@H](C[C@@](C)(O)C(=O)O)CC[C@H]5O)O4)O3)CC[C@H]2O[C@@H]1[C@@H](O)C[C@H](C)[C@H]1O[C@@]2(CCCCO2)CC[C@H]1C [okadaic acid], the “phospho-p38 in the presence of 8-NH2-Ado” value ([4]; 30 nM okadaic acid in combination with 8-NH2-Ado, 4 hours) is reported as “partial recovery of phosphorylation”, the phospho-p38 levels ([4]; 30 nM okadaic acid with 10 μM 8-NH2-Ado, at 6 hours) is reported as “still present” and the “8-NH2-Ado-induced loss of p38 phosphorylation” value ([4]; 30 nM okadaic acid with 10 μM 8-NH2-Ado, time course) is reported as “significantly delays”.

For Antimycin A, the phospho-ERK1/2 [1] was “did not reveal a decrease in phosphorylation” and the phospho-Akt [2] was “did not reveal a decrease in phosphorylation”.
